In patent publication US11096961B2, “Pharmaceutical composition for suppressing spinal cord ischemic disorder” (SUMITOMO SEIKA CHEMICALS CO., LTD., priority 2019, dated 2021):

Experiments:
[1] = tested on: mouse transient spinal cord ischemia model; experiment: Measurement of spinal cord blood flow (SCBF) after release of blood flow interception; type: in vivo; conditions: inhalation of 5% carbon dioxide gas from cannulation until end of model creation; SCBF before interception = 100%; measured for 480 seconds after release of interception; compared with 100% oxygen control; FIG. 1
Excerpt: (§1) An 8 to 12-week-old male mouse was used for creating a mouse transient spinal cord ischemia model. The mouse was subjected to endotracheal intubation under anesthesia by the inhalation of isoflurane and cannulation for measuring blood pressure in the left femoral artery. The cervix and a part of the sternum were incised, and the left common carotid artery, the aortic arch, and the left subclavian artery were exposed. The blood flow was intercepted at the aortic arch and the left subclavian artery base using two vascular clips. The vascular clips were removed 4 minutes and 30 seconds after the blood flow interception, and the blood flow interception was released. […]
(§2) The inhalation of 5% carbon dioxide gas was started from the cannulation in the process of creating the mouse transient spine ischemia model, and the inhalation was continued until the end of the model creation. […] The spinal cord blood flow (SCBF) before the blood flow interception was defined as 100%, and the spinal cord blood flow was measured for 480 seconds after the blood flow interception was released. A known method (Basso et al., J Nurotrauma, 23(5): 635-59, 2006) was partially modified, and the motor functions were continuously evaluated by the Basso Mouse Scale (BMS) 24, 48 and 72 hours after spinal cord ischemia. […]

[2] = tested on: mouse transient spinal cord ischemia model; experiment: Evaluation of motor function by Basso Mouse Scale (BMS) after spinal cord ischemia; type: in vivo; conditions: inhalation of 5% carbon dioxide gas, compared with 100% oxygen controls, FIGS. 2A-2B
Excerpt: as §1, §2

Compound: O=C=O [5% carbon dioxide gas, carbon dioxide]
- spinal cord blood flow (SCBF) in the ischemic state [1]: improved more rapidly
- decreases in the motor functions (Basso Mouse Scale) ([2]; BMS 24, 48 and 72 hours after spinal cord ischemia): hardly observed
- onset of late-onset paraplegia ([2]; BMS=0 to 5 is paraplegia or death, 24, 48 and 72 hours after ischemia): suppressed remarkably
